Entries after “also recorded” stand apart in the source; their conditions may differ.
How the values were obtained:
[1] = system: MCF-7 breast cancer cells; assay: MTT cell viability assay, MCF-7 breast cancer cells; format: cell-based, human; details: MCF-7, 5-100 μM, 24 hr
Text: Cell viability was detected by MTT assays, and the control (PBS-treated) cells were considered 100% viable. Mean±SE (N=3). *P<0.05, **P<0.01, ***P<0.001.
(§1) Cell lines and culture: Human cancer and noncancer (immortalized and nonimmortalized) cell lines were obtained from the American Type Culture Collection [prostate cancer (PC3, DU145 and LNCaP), normal prostate (CRL11611), breast cancer (MCF-7), ovarian cancer (SK-OV3 adenocarcinoma), lung cancer (A549)]. MDD2 breast cancer cells (p53 dominant-negative) were provided courtesy of Dr Andrei V. Gudkov, Roswell Park Cancer Institute. 20 All cell lines were cultured in MEM-E (Invitrogen) supplemented with 10% heat-inactivated fetal bovine serum (Atlanta Biological, Inc.), 100 units/mL penicillin, and 100 μg/mL streptomycin at 37° C. in 5% CO2.
(§2) Cytotoxicity assay: The MTT assay was performed as we previously described (Cha et al., Cancer Research 2020, 80: 1615-1623).

[2] = system: LNCaP prostate cancer cells; assay: MTT cell viability assay, LNCaP prostate cancer cells; format: cell-based, human
Method: as §1

[3] = system: normal prostate cells CRL11611; assay: MTT cell viability assay, normal prostate CRL11611 cells; format: cell-based, human; details: normal prostate CRL11611 (p53+, AR+), 24-72 hr; paclitaxel 1 nM
Text: FIG. 4A-4D: Effect of peptides on prostate cancer cell lines with differences in p53 and AR expression status. […] Control (PBS)-treated cells were considered to have 100% viability. Mean±SE (N=3).
as §1, §2

MDD2 breast cancer cells = assay: MTT cell viability assay, MDD2 breast cancer cells; format: cell-based, human; details: MDD2 (p53 dominant negative), 0.1-100 μM, 24 hr
Method: as §1, §2

PC3 cells [4] = assay: Cellular membrane toxicity, LDH leakage assay; format: cell-based, human; details: PC3, 0.2-200 μM, 37° C.
Method: FIG. 6A-6B: Cellular membrane toxicity assays. […] Cells treated with lysis buffer were defined as having 100% LDH release. Mean±SE (N=3).
Cellular membrane toxicity: LDH assays were performed as we previously described (Cha et al., Cancer Research 2020, 80: 1615-1623).

LNCaP cells = assay: Annexin-V apoptosis assay by flow cytometry, LNCaP; format: cell-based, human; details: 48 hr, Ptxl 1 nM, p28 50 μM, aurA/aurB 0.5-50 μM
Method: (§3) FIG. 7A-7D: Determination of apoptotic cell death. Prostate cancer cell lines (7A: LNCaP, 7B: DU145 and 7C: PC3) and normal prostate CRL11611 cells (7D) were exposed to the indicated agents for 48 hr and stained using apoptosis assay kits according to the manufacturer's instructions. The samples were analyzed by flow cytometry. Mean±SE (N=3).
(§4) After 48 hr, annexin-V apoptosis assays (Thermo Fisher Scientific) were conducted to detect apoptotic cells. At least 10,000 cells in each case were analyzed by FACS (RRC, UIC).

PC3 cells [5] = assay: Annexin-V apoptosis assay by flow cytometry, PC3; format: cell-based, human; details: PC3, 48 hr; Ptxl 1 nM, p28 50 μM, aurA/aurB 0.5-50 μM
Method: as §3, §4

PC3 xenograft tumors = assay: PC3 xenograft animal model; format: in vivo, athymic mice
Text: FIG. 10A-10D: Inhibition of PC3 xenograft tumor growth. 10A, When the s.c. tumors reached ˜5 mm, athymic mice were randomized into control (PBS) and i.p. treatment groups. Mean±SE (N=5). *P<0.01. […] 10C, At the end of treatment, tumors were dissected and weighed. * P<0.01. 10D, In sections of tumors from the control group, there was a marked increase in Ki-67-positive proliferating cells (stained brown and counterstained with haematoxylin, ×40), and only a few apoptotic cells were observed, as determined by TUNEL and caspase-3 (Casp-3) staining. There was an apparent sharp reduction in Ki-67-positive proliferating cells and a higher number of TUNEL-positive apoptotic cells in the aurB-treated group compared to the control group. Similarly, Casp-3 expression in aurB-treated tumors was increased markedly compared with that in untreated controls.
Xenograft animal model: Human prostate cancer cells (PC3) were injected s.c. into the right flanks of 5- to 6-week-old male athymic mice 78. When tumors reached 5 mm in diameter, animals were randomized into control and treatment groups. […] All animals were weighed twice a week. At necropsy, tumors were dissected and weighed. Statistical comparisons were performed by one-way analysis of variance (ANOVA) (control vs treatment). Tumor samples were fixed overnight in 10% buffered formalin. Fixation was followed by dehydration, clearing and infiltration. Samples were then embedded in paraffin, and 4 μm sections were cut on a microtome. Ki67 (LabVision) staining was performed on the tissue sections using a Vector Vectastain Elite ABC Kit. The TUNEL assay was performed on the sections using a Millipore Sigma ApopTag® Peroxidase In Situ Apoptosis Detection Kit.

[6] = tumor sections, aurB 5 mg/kg daily i.p.

“LVN GGD DVA AAV NTA AQN NAD ALF VPPP (LVNGGDDVAAAVNTAAQNNADALFVPPP) [aurB]” was tested, and the “anti-proliferative effect (MTT cell viability)” value [1] was “clear dose-dependent effects”, the “cytotoxic effect (MTT cell viability)” value ([2]; LNCaP (p53 wild-type, AR+), 24-72 hr, paclitaxel 1 nM) was “significantly induced dose-dependent cytotoxic effects; also recorded: more sensitive than the normal prostate cell line” and the inhibition rate ([2]; LNCaP, 100 μM for 72 hr) was about 50%. The “cytotoxic effect (MTT cell viability)” value [3] was “not evident”, the “effect on p53-inactive cancer cells (MTT)” value (MDD2 breast cancer cells) was “dose-dependent” and the “cellular membrane toxicity (LDH release)” value (PC3 cells [4]) was “Neither aurA nor aurB induced cellular membrane toxicity at any concentrations”. For the same substance, the apoptotic cell death (LNCaP cells) was “induced significant dose-dependent apoptosis”, the apoptotic cell death (PC3 cells [5]) was “induced significant dose-dependent apoptosis” and the tumor weight (PC3 xenograft tumors; at end of treatment, aurB 5 mg/kg daily i.p.) was “significantly decreased tumor weight”. The “tumor growth inhibition vs PBS control” value (PC3 xenograft tumors; end of treatment, four weeks i.p., aurB 5 mg/kg daily, Ptxl 10 mg/kg once a week) was about 65%, the “antitumor effect on PC3 tumor growth” value (PC3 xenograft tumors; four weeks i.p., aurB 5 mg/kg daily, p28 10 mg/kg daily) was “significantly inhibited” and the “behavioral change, body weight” value (PC3 xenograft tumors; four weeks of i.p. treatment) was “without inducing either a behavioral change or a loss in body weight”. The “Ki-67-positive proliferating cells in tumors” value (PC3 xenograft tumors; [6]) was “substantially reduce the number of proliferating Ki-67-positive cells”, the “TUNEL-positive apoptotic cells in tumors” value (PC3 xenograft tumors; [6]) was “number of apoptotic cells was increased” and the “caspase-3-positive cancer cells in tumors” value (PC3 xenograft tumors; [6]) was “substantial increase in caspase-3-positive cancer cells”.

From patent US20250179126A1, “A NOVEL PEPTIDE FROM A PHOTOSYNTHETIC BACERIUM DIRECTLY TARGETS MITOCHONDRIA TO TRIGGER APOPTOSIS IN ADVANCED PROSTATE CANCER CELLS” (priority 2022, published 2025)
